Experimental data reported in patent US11186564B2, “Dual NAV1.2/5HT2a inhibitors for treating CNS disorders” (Sunovion Pharmaceuticals Inc., priority 2016, dated 2021).
Read-outs that look alike come from different tables or passages of the source.

Assays:
[1] = target: T1, recombinant human serotonin receptor 5-HT2A (Homo sapiens, UniProt P28223); assay: 5-HT2A antagonist Ca2+ assay in CHO-K1 cells (method A aequorin luminescence / method B FLIPR fluorescence); type: cell-based; conditions: antagonist mode vs EC80 of reference agonist, method A or B, read-out: 5HT2A IC50
T1 construct: expressed in transfected cells; method B: loaded with Ca2+ dye
T1 sequence (P28223 whole entry): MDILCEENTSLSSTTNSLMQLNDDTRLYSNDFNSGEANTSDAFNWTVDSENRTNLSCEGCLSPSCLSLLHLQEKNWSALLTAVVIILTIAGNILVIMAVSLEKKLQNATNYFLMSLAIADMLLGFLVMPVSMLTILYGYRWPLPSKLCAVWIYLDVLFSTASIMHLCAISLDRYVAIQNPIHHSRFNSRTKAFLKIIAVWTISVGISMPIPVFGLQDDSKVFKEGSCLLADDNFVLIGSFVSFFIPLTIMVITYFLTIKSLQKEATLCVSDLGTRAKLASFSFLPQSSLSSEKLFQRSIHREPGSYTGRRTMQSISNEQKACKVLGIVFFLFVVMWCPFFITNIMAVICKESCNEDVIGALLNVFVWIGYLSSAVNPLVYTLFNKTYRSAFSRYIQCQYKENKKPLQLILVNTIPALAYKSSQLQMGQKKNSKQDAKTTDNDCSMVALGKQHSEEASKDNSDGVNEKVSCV
How it was run: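 IC50 was obtained by nonlinear regression of percent inhibition of the EC80 agonist Ca2+ response in CHO-K1 cells stably expressing human 5-HT2A. The readout was aequorin luminescence with agonist injected 15 min after compound (A), or Ca2+-dye fluorescence on FLIPR with serotonin as agonist (B).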

[2] = target: human sodium channel NaV1.2 (Homo sapiens, UniProt Q99250); assay: NaV1.2 inhibition, automated patch-clamp (Q-Patch HTX), slow inactivated state (state C); type: cell-based; conditions: for inhibition at 1 µM: 1 μM compound, read-out: NaV1.2 (% inh), 1 μM; for inhibition at 10 µM: 10 μM compound, read-out: NaV1.2 (% inh), 10 μM
Sequence of human sodium channel NaV1.2 (Q99250 whole entry): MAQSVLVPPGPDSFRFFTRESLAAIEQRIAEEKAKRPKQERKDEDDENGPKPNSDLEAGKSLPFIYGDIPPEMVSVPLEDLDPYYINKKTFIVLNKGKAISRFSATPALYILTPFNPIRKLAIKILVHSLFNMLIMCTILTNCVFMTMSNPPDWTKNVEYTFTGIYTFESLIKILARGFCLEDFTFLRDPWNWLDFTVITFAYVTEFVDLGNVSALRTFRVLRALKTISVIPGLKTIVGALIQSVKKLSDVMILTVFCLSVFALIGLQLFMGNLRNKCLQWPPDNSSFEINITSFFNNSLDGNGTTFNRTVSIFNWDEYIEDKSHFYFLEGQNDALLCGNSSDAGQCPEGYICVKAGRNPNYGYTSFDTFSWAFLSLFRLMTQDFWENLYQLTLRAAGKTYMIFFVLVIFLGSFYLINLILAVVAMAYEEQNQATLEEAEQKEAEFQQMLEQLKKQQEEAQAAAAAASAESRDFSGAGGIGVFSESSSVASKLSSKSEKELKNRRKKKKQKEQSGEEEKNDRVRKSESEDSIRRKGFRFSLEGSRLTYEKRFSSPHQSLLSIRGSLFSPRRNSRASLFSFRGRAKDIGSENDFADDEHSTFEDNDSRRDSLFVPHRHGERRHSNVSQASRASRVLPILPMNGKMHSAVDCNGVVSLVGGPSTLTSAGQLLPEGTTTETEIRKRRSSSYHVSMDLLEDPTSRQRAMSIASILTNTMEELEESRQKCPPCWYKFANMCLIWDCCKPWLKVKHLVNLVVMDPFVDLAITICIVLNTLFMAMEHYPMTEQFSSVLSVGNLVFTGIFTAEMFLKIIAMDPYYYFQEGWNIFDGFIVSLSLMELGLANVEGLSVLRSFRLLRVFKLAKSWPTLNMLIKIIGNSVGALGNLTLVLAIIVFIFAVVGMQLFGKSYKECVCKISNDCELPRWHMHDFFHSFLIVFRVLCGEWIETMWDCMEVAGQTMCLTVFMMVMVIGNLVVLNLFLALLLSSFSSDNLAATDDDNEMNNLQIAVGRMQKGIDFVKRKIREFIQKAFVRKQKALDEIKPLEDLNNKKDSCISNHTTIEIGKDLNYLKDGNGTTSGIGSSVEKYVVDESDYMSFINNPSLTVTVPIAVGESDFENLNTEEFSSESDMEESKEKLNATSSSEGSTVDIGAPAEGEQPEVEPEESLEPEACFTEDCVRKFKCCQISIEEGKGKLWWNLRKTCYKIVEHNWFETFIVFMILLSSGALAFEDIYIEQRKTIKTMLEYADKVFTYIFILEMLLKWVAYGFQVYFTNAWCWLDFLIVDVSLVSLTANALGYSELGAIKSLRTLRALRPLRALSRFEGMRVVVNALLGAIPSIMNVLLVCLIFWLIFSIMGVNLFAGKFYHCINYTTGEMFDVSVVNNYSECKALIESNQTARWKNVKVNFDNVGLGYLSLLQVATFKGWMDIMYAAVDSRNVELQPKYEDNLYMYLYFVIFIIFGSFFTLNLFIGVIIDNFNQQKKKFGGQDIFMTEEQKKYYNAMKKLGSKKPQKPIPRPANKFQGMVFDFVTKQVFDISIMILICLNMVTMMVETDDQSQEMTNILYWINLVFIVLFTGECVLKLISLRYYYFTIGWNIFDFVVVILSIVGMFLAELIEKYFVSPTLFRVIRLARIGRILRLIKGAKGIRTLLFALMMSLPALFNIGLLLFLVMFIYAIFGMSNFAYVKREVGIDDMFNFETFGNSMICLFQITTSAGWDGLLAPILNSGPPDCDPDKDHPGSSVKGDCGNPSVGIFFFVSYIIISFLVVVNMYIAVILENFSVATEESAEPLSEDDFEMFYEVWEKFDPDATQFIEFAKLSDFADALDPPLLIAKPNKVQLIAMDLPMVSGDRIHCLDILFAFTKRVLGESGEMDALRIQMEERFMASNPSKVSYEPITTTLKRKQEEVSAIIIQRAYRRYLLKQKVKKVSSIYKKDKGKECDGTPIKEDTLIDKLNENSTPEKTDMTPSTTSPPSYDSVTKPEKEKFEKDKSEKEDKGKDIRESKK
Excerpt: In vitro method for NaV1.2 inhibition assays: The methods utilized to assess the inhibitory activity of compounds on NaV1.2 were based on the methods described by Liu et al. [Liu Y, Beck E J, & Flores C M (2011): Validation of a patch clamp screening protocol that simultaneously measures compound activity in multiple states of the voltage-gated sodium channel Nav1.2. Assay Drug Development Technology 9, 628-634]. For these electrophysiology assays, a cell line (Chinese Hamster Ovarian K-1 cells (CHO K-1)) engineered to stably express human sodium channel NaV1.2 was purchased from Millipore Corporation (catalog no. CYL3023). The electrophysiology measurements were performed using automated patch-clamp methods on a Q-Patch HTX instrument by scientists at Evotec AG under contract with Sunovion.
The solutions utilized for the Qpatch experiments were similar buffered solutions to those described by Liu et al. [Liu Y, Beck E J, & Flores C M (2011)]. The extracellular solution contained 140 millimolar sodium chloride, 4 millimolar potassium chloride, 2 millimolar calcium chloride, 1 millimolar magnesium chloride, 10 millimolar 4-(2-hydroxyethyl)-1-piperazineethanesulfonic acid (HEPES), and 10 millimolar glucose (pH adjusted to 7.4 with sodium hydroxide). The intracellular solution contained 100 millimolar cesium fluoride, 45 millimolar cesium chloride, 10 millimolar HEPES, 5 millimolar ethylene glycol tetraacetic acid (EGTA), and 5 millimolar glucose (pH adjusted to 7.2 with cesium hydroxide).
The biophysical experiments of Lui et al. [Liu Y, Beck E J, & Flores C M (2011)] were replicated to assess the fast, slow and total inactivation characteristics of the human Nav1.2 channel
Based upon results from studies of the fast, slow and total inactivation characteristics of the human Nav1.2 channel, a voltage protocol involving a sequence of consecutive pulses of current was used to measure channel activity in several states [Liu Y, Beck E J, & Flores C M (2011)]. The monolayer of CHO K-1 cells stably expressing human sodium channel NaV1.2 (hNaV1.2 CHO cells) was maintained in the Qpatch instrument at a potential of −100 millivolts (mV) except when the voltage protocol was being executed. The first pulse in the protocol involved a 100 millisecond depolarization to 0 mV to enable measurement of channel availability in the closed state (state A). The potential was then maintained at −90 mV for 15 milliseconds, followed by a five millisecond period of depolarization to 0 mV to enable measurement of channel availability after partial recovery from fast inactivation (state B). Next, the potential was maintained at −90 mV for 300 milliseconds, followed by ten seconds at −50 mV, 15 milliseconds at −90 mV, and finally another five millisecond period of depolarization to 0 mV to enable measurement of channel availability after additional recovery from fast inactivation and significant entry into the slow inactivated state (state C). Finally, after an additional 300 millisecond period at −90 mV, another five millisecond period of depolarization to 0 mV was employed to enable measurement of channel availability after partial recovery from the slow inactivated state (state D). Measurements of activity at state C were used to assess the activity of the NaV1.2 channel in the slow inactivated state. Comparison of activity after addition of test compounds or reference compounds with activity after addition of vehicle only provided a measure of percent remaining activity from which percent inhibition was calculated. […] A slight modification of this protocol was utilized to provide measurements as a function of compound concentration, which enabled IC50 values to be determined. IC50 values were calculated by non-linear least squares regression of the data (percent inhibition of ion channel NaV1.2 activity in the slow inactivated state) onto equation (1): % inhibition=100%/(1+(IC50/[compound]) equation (1)
J Pharmacol Exp Ther. 2008 July; 326(1):89-99.].

[3] = hNaV1.2 CHO cells, slow inactivated state, read-out: NaV1.2 IC50
[4] = hNaV1.2 CHO cells, slow inactivated state
[5] = reference compound, Test 1, read-out: IC50 (μM) for NaV1.2 slow inactivated state, Test 1
[6] = reference compound, Test 2, read-out: IC50 (μM) for NaV1.2 slow inactivated state, Test 2
[7] = reference compound, Test 3, read-out: IC50 (μM) for NaV1.2 slow inactivated state, Test 3

Row | SMILES | IC50 [1] [nM] | IC50 [2, 3] [µM] | other results
1 | OC(COC1CCCCC1)CN1C[C@@H]2C[C@H](C1)N(c1ccccc1)C2 (stereo partly drawn) [Example 331, 1-(cyclohexyloxy)-3-((1S,5R)-6-phenyl-3,6-diazabicyclo[3.2.1]octan-3-yl)propan-2-ol] | 1640 | 0.31 | 
2 | c1ccc(O[C@@H]2COC3(CCN(C[C@H]4CCc5ccccc54)CC3)C2)cc1 (single isomer, unassigned) [Compound 384] | 300 | 0.29 | 
3 | COc1ccc2c(c1)C(CN1CC[C@@H]3C[C@H]1CN3c1ccccc1)CC2 (stereo partly drawn) [Example 319, (1S,5R)-2-((6-methoxy-2,3-dihydro-1H-inden-1-yl)methyl)-6-phenyl-2,6-diazabicyclo[3.2.1]octane] | 1210 | 0.04 | 
4 | O=C(CN1CCC(Oc2ccccc2)CC1)c1ccccc1 [Example 216, 2-(4-phenoxypiperidin-1-yl)-1-phenylethan-1-one] | 150 |  | inhibition at 1 µM [2, 4]: 34%
5 | O=C1c2cccnc2CCN1CCN1CCC(Oc2ccc(F)cc2)CC1 [Example 207, 6-(2-(4-(4-fluorophenoxy)piperidin-1-yl)ethyl)-7,8-dihydro-1,6-naphthyridin-5(6H)-one] | 30 |  | inhibition at 10 µM [2, 4]: 38%
6 | COc1ccc2c(c1)C(CN1CCC(OCc3ccccc3Cl)CC1)CC2 (stereo not shown) [Example 244, 4-((2-chlorobenzyl)oxy)-1-((6-methoxy-2,3-dihydro-1H-inden-1-yl)methyl)piperidine] | 60 | 0.16 | 
7 | Nc1nnc(-c2cccc(Cl)c2Cl)c(N)n1 [lamotrigine, reference compound] |  |  | IC50 [2, 5]: 34 µM; IC50 [2, 6]: 33 µM; IC50 [2, 7]: 25 µM
8 | c1ccc2c(c1)CC(CN1CCC3(CC1)Cc1ccccc1O3)C2 [Example 396, 1′-((2,3-dihydro-1H-inden-2-yl)methyl)-3H-spiro[benzofuran-2,4′-piperidine]] | 90 | 0.17 | 
9 | c1ccc(OC2CCN(CCO[C@H]3CCc4ccccc43)CC2)cc1 [Example 217, (S)-1-(2-((2,3-dihydro-1H-inden-1-yl)oxy)ethyl)-4-phenoxypiperidine] | 280 |  | inhibition at 1 µM [2, 4]: 58%
10 | OC(COC1CCCCC1)CN1CCC2(CCN(c3ccccc3)CC2)C1 (stereo not shown) [Example 350, 1-(cyclohexyloxy)-3-(8-phenyl-2,8-diazaspiro[4.5]decan-2-yl)propan-2-ol] | 610 | 1.68 | 
11 | COc1ccc(OC2CCN(CCN3CCc4ccccc4C3=O)CC2)cc1 [Example 202, 2-(2-(4-(4-methoxyphenoxy)piperidin-1-yl)ethyl)-3,4-dihydroisoquinolin-1(2H)-one] | 174 |  | inhibition at 10 µM [2, 4]: 62%
12 | O=C1c2ccccc2CCN1CCCN1CCC(Oc2cccnc2)CC1 [Example 220, 2-(3-(4-(pyridin-3-yloxy)piperidin-1-yl)propyl)-3,4-dihydroisoquinolin-1(2H)-one] | 490 |  | inhibition at 10 µM [2, 4]: 12%
13 | OC(CO[C@@H]1CCc2ccccc21)CN1CC[C@@H](Oc2cccc(F)c2)C1 (stereo partly drawn) [Example 36, 1-(((R)-2,3-dihydro-1H-inden-1-yl)oxy)-3-((R)-3-(3-fluorophenoxy)pyrrolidin-1-yl)propan-2-ol] | 1760 | 0.25 | 
14 | O=C1c2ccccc2CCN1CCN1C[C@@H]2C[C@H](C1)N(c1ccccc1)C2 [Example 329, 2-(2-((1S,5R)-6-phenyl-3,6-diazabicyclo[3.2.1]octan-3-yl)ethyl)-3,4-dihydroisoquinolin-1(2H)-one] | > 16700 |  | inhibition at 1 µM [2, 4]: 36%
15 | Cc1ccc(N2CCN(C[C@@H](O)COC3CCCCC3)CC2)cc1 [Example 78, (R)-1-(cyclohexyloxy)-3-(4-(p-tolyl)piperazin-1-yl)propan-2-ol] | > 10000 | 4.66 | 
16 | c1ccc(O[C@H]2COC3(C2)CN(C[C@@H]2CCc4ccccc42)C3)cc1 (single isomer, unassigned) [Compound 367] | 280 | 0.39 | 
17 | c1ccc2c(c1)CCC1(CCN(CC3Cc4ccncc4C3)CC1)O2 (stereo not shown) [Example 412, 1′-((6,7-dihydro-5H-cyclopenta[c]pyridin-6-yl)methyl)spiro[chromane-2,4′-piperidine]] | 1860 |  | inhibition at 1 µM [2, 4]: 18%
18 | COCc1cccc(OC2CCN(CCN3CCc4ccccc4C3=O)CC2)c1 [Example 196, 2-(2-(4-(3-(methoxymethyl)phenoxy)piperidin-1-yl)ethyl)-3,4-dihydroisoquinolin-1(2H)-one] | 360 |  | inhibition at 10 µM [2, 4]: 67%
19 | NC(=O)N1c2ccccc2C=Cc2ccccc21 [carbamazepine, reference compound] |  |  | IC50 [2, 5]: 19 µM; IC50 [2, 6]: 22 µM
20 | CN1CCN(c2ncc(-c3cc(Cl)cc(Cl)c3Cl)c(N)n2)CC1 [sipatrigine] |  |  | IC50 [2, 5]: 1.6 µM; IC50 [2, 6]: 2.8 µM; IC50 [2, 7]: 0.6 µM; IC50 ([2]; reference compound, Test 4, read-out: IC50 (μM) for NaV1.2 slow inactivated state, Test 4): 0.5 µM
21 | c1ccc(CCN2CCC3(CCc4ccccc4O3)CC2)cc1 [Example 427, l′-phenethylspiro[chromane-2,4′-piperidine]] |  |  | inhibition at 10 µM [2, 4]: 81%
22 | COc1ccc2c(c1)C(CN1CCN(c3ccccc3)CC1)CC2 (stereo not shown) [Example 54, 1-((6-methoxy-2,3-dihydro-1H-inden-1-yl)methyl)-4-phenylpiperazine] |  | 2.64 | 
23 | COc1ccc2c(c1)C(C)(CN1CCC(Oc3ccccc3OC)CC1)CC2 (stereo not shown) [Example 97, 1-((6-methoxy-1-methyl-2,3-dihydro-1H-inden-1-yl)methyl)-4-(2-methoxyphenoxy)piperidine] |  | 0.08 | 
24 | COC[C@@H](NC(C)=O)C(=O)NCc1ccccc1 [lacosamide, reference compound] |  |  | IC50 [2]: 65 µM
25 | O[C@@H](COC1CCCCC1)CN1C[C@H]2CC[C@@H](C1)N2c1ccccc1 [Example 301, (R)-1-(cyclohexyloxy)-3-((1R,5S)-8-phenyl-3,8-diazabicyclo[3.2.1]octan-3-yl)propan-2-ol] | > 10000 |  | 
26 | COc1ccccc1CN1CCC2(CCN(c3ccccc3)C2)C1 (stereo not shown) [Example 342, 2-(2-methoxybenzyl)-7-phenyl-2,7-diazaspiro[4.4]nonane] | 2080 |  | 
27 | COc1ccccc1O[C@@H]1CCN(CC2Cc3cccnc3C2)[C@@H](C)C1 (stereo partly drawn) [Example 149, 6-(((2S,4R)-4-(2-methoxyphenoxy)-2-methylpiperidin-1-yl)methyl)-6,7-dihydro-5H-cyclopenta[b]pyridine] | 300 |  | 
28 | CC(CN1CCc2ccccc2C1=O)N1CC[C@@H](Oc2ccc(F)cc2)C1 (stereo partly drawn) [Example 33, 2-(2-((R)-3-(4-fluorophenoxy)pyrrolidin-1-yl)propyl)-3,4-dihydroisoquinolin-1(2H)-one] | > 10000 |  | 
29 | OC(COC1CCCCC1)CN1CCCC12CCN(c1ccccc1)C2 (stereo not shown) [Example 349, 1-(cyclohexyloxy)-3-(7-phenyl-1,7-diazaspiro[4.4]nonan-1-yl)propan-2-ol] | > 16700 |  | 
